Measured values from the supplement of paper PMC10307832.

Columns and labels:
Assay in all cases: relative viability (nuclei count vs DMSO), 5 days (fraction); higher = more cells survive
[1] = compound: CC1=CC(=CC=C1)NC2=NC(=CS2)C3=CC=NC=C3 + Cc1nc(NC(=O)N2CCC[C@H]2C(N)=O)sc1-c1ccnc(C(C)(C)C(F)(F)F)c1 [Alpelisib] (partner 2 µM)
Procedure, shortened: (§1)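 Lung cancer cell lines were seeded in 1536-well plates and dosed by pin tool the next day, with either a single drug or a fixed anchor-drug dose combined with five library-drug doses (not always all listed) spaced in √10 steps. Five days later, one step fixed the cells and stained their nuclei (final 0.05% Triton X-100, 1% formaldehyde, 1 ug/ml Hoechst), and nuclei were counted on 4× images. Relative viability is the nuclei count in treated wells divided by the count in vehicle wells, and each value is the median of duplicate plates.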

[2] = compound: Cc1ccc(NC(=O)c2ccc(CN3CCN(C)CC3)cc2)cc1Nc1nc(-c2cccnc2)cs1 [Masitinib] + O=C(CCCCCCC(=O)Nc1ccccc1)NO [Vorinostat] (partner 1 µM)
Procedure, shortened: as §1

[3] = compound: CC1=CC(=CC=C1)NC2=NC(=CS2)C3=CC=NC=C3 + COc1cc2c(Oc3ccc(NC(=O)C4(C(=O)Nc5ccc(F)cc5)CC4)cc3F)ccnc2cc1OCCCN1CCOCC1 [Foretinib] (partner 0.25 µM)
Procedure, shortened: as §1

[4] = compound: CC1=CC(=CC=C1)NC2=NC(=CS2)C3=CC=NC=C3 + O=C(CCCCCCC(=O)Nc1ccccc1)NO [Vorinostat] (partner 1 µM)
Procedure, shortened: as §1

Cell Line: UMC-11
- relative viability ([1]; first compound 0.08 µM): 1.02
- relative viability ([1]; first compound 0.253 µM): 0.91
- relative viability ([1]; first compound 0.8 µM): 0.993
- relative viability ([1]; first compound 2.53 µM): 0.993
- relative viability ([1]; first compound 8 µM): 1.06
- relative viability ([2]; first compound 0.01 µM): 0.314
- relative viability ([2]; first compound 0.03162 µM): 0.342
- relative viability ([2]; first compound 0.1 µM): 0.375
- relative viability ([2]; first compound 0.3162 µM): 0.366
- relative viability ([2]; first compound 1 µM): 0.359
- relative viability ([3]; first compound 0.08 µM): 1.04
- relative viability ([3]; first compound 0.253 µM): 1.04
- relative viability ([3]; first compound 0.8 µM): 1.02
- relative viability ([3]; first compound 2.53 µM): 1.15
- relative viability ([3]; first compound 8 µM): 1.17
- relative viability ([4]; first compound 0.08 µM): 0.356
- relative viability ([4]; first compound 0.253 µM): 0.32
- relative viability ([4]; first compound 0.8 µM): 0.354
- relative viability ([4]; first compound 2.53 µM): 0.34
- relative viability ([4]; first compound 8 µM): 0.487
